Columns and labels:
U266 cells = experiment: SPT expression, ceramide staining and SPT inhibition in U266 cells; format: cell-based, human; details: U266, co-incubation with cannabinoid, 6 hours
Method: Except if otherwise indicated, for the viability assays primary cells were incubated 18 hours, with vehicle (with <0.15% DMSO) or cannabinoid. Meanwhile, the time course assays cells were performed at 0, 2, 6, 18 and 24 h. For the analysis of SPT activity, cells were co-incubated for the first 6 hours with the SPT inhibitor, myriocin, and the cannabinoid, WIN-55 or JWH-133.
Samples (15-25 ug/lane) were subjected to SDS/PAGE in pre-cast polyacrylamide gels AnykD (Bio-Rad Laboratories, Hercules, CA, USA) under reducing and denaturing conditions. Electrophoretic run was performed at a constant current of 15 mA per gel in a Mini-Protean® Tetra Cell (Bio-Rad Laboratories). Once proteins were separated by electrophoresis, were transferred onto PVDF membranes using Trans-Blot® Turbo™ System (Bio-Rad Laboratories). Electrotransference was conducted at constant amperage of 1.2 mA and at up to 25 V of voltage. The blotted membranes were then blocked with 2% bovine serum albumin [(BSA), Santa Cruz Biotechnology] in Tween-Tris buffer saline (TTBS) for 30 min with gentle agitation, and incubated overnight at 4° C. with corresponding primary antibody in TTBS. After twice washing with TTBS, membranes were incubated for 1-2 h at room temperature with suitable conjugated-HRP secondary antibody, and subjected to chemiluminescence detection using Western Blotting Luminol Reagent (Santa Cruz Biotechnology). Loading controls were carried out with an anti-beta-actin and anti-beta-tubulin antibodies (Sigma-Aldrich). Blots were captured using a digital imaging system ImageQuant LAS 4000 (Amersham GE Healthcare) and transferred to a digital image processing software to analyze (Adobe Photoshop CS2, version 9.0., Adobe Systems Inc., San Jose, Calif.).
After cannabinoids and/or antagonists or SPT inhibitor treatment, primary cells and cell lines were washed with PBS, collected and placed on slides (Menzel-Glaser, Thermo Fisher Scientific). Cells were fixed in cold 4% paraformaldehyde for 10 min, treated with sodium borohydride and, permeabilized in 0.02% Triton X-100 in PBS with 10% normal donkey serum for blocking. Then, cells were incubated with the anti-CB1 or anti-CB2 receptor antibodies, anti-active-caspase3, anti-ceramide in blocking buffer overnight at 4° C. in a humid chamber (Simport, Beloeil, QC, Canada). After washing with PBS, samples were further incubated for 90 min with Alexa 647- or Alexa 488—conjugated donkey secondary antibody. After twice washing, first with PBS and then with 50 mM Tris-HCl (pH 7.4), and were dipped in a solution of Sudan Black B (Sigma-Aldrich) in 70% methanol for 5 min. After immunocytochemistry, slides were mounted using Fluoromount Aqueous Mounting Medium (Sigma-Aldrich). Preparations were examined with an Olympus BX-61 microscope (Olympus, Hamburg, Germany) equipped with appropriate filters: FITC/Cy2 (green fluorophores) 460-490 nm bandpass excitation filter and 510-550 nm bandpass emission filter; rhodamine/Cy3 (red fluorophores) 541-551 nm excitation and 572-607 nm emission; and Cy5 (deep red fluorophore) 615-635 nm excitation and 655 nm longpass emission. Digital images were acquired with CellSens Dimension Software (Olympus) and contrasted with Photoshop CS2 Software (Adobe Systems Inc). […]
De novo synthesis of ceramides contribute to the apoptotic process triggered by cannabinoids. […] To this end, we analyzed the expression of serine palmitoyltransferase (SPT), the enzyme that catalyses the rate-limiting step of ceramide synthesis de novo. […]

HL60 cells = experiment: SPT expression, ceramide staining and SPT inhibition in HL60 cells; format: cell-based, human; details: HL60, co-incubation with cannabinoid, 2 hours
Method: Extracted proteins (15-25 ug/well) were separated by sodium dodecyl sulfate-polyacrylamide gel electrophoresis (SDS/PAGE) in pre-cast polyacrylamide gels AnykD (Bio-Rad Laboratories, Hercules, Calif., USA) under reducing and denaturing conditions. Electrophoretic run was performed at a constant current of 15 mA per gel in a Mini-Protean® Tetra Cell (Bio-Rad Laboratories) and were electrophoretically transferred onto PVDF membranes using Trans-Blot® Turbo™ System (Bio-Rad Laboratories). Blocking was performed with 2% bovine serum albumin [(BSA), Santa Cruz Biotechnology] in Tween-Tris buffer saline (TTBS). Membranes were incubated overnight at 4° C. with corresponding primary antibody in TTBS.
Cells were grown on glass cover slips (Menzel-Glaser, Thermo Fisher Scientific) in the presence or absence of WIN 55,212-2. The cover slips were then washed twice in phosphate-buffered saline (PBS), and the cells were fixed in cold 4% paraformaldehyde for 10 min, treated with sodium borohydride and, permeabilized in 0.02% Triton X-100 in PBS with 10% normal donkey serum for blocking. Cell nuclei were stained with diamidino-2-phenylindole [(DAPI), Pierce, Thermo Fisher Scientific)]. Then, cells were incubated with the anti-CB1 or anti-CB2 receptor antibodies or anti-ceramide in blocking buffer overnight at 4° C. in a humid chamber (Simport, Beloeil, QC, Canada). After washing with PBS, samples were further incubated for 90 min with Alexa 647- or Alexa 488-conjugated donkey secondary antibody.
After final washing in PBS, the cover slips were dried and mounted on slides using Fluoromount Aqueous Mounting Medium (Sigma-Aldrich). Changes in the protein expression were visualized by fluorescence microscopy using a specific excitation for each antibody. Digital images were acquired with CellSens Dimension Software (Olympus) and manipulated with Photoshop CS2 Software (Adobe Systems Inc). There was no labeling when the primary antibody was omitted (data not shown).
Additionally, de novo synthesis of ceramides also contribute to the apoptotic process triggered by cannabinoids in AML. We examined whether ceramides participate in the cannabinoid-induced apoptosis in leukemic cells. To this end, we analyzed the expression of serine palmitoyltransferase (SPT), the enzyme that catalyses the rate-limiting step of ceramide synthesis de novo. […] To ensure that this up-regulation of SPT entails an increased of ceramide synthesis, we examined the expression of ceramide by immunohistochemistry. […] Furthermore, to strengthen the engagement of the ceramide in cannabinoid-induced apoptosis, we analyzed the cannabinoid-induce apoptosis after inhibition of ceramide synthesis with Myoricin, a selective SPT inhibitor.

CCCCCCC(=O)CCCCCC/C=C/C[C@@H](O)[C@H](O)[C@@](N)(CO)C(=O)O [Myoricin]
fragmentation of PARP induced by cannabinoid, after blockage of ceramide synthesis (U266 cells): abolished, at least in part
fragmentation of PARP induced by cannabinoid, after blockage of ceramide synthesis (HL60 cells): abolished, at least in part

Source: US20180353461A1, “USE OF CANNABINOIDS AS CERAMIDE-GENERATING ANTICANCER AGENTS IN TUMORS OF THE HEMATOPOIETIC AND LYMPHOID TISSUES” (priority 2014, published 2018)
